{"source": "patent US7932255B2", "about": "“2-aminocarbonyl substituted piperazine or diaza-cyclic compounds as apoptosis protein inhibitors (lap) modulators” (Novartis AG, priority 2006, dated 2011)"}
{"molecular_target": "T1, XIAP (Homo sapiens, UniProt P98170)", "T1 construct": "GST", "T1 sequence (P98170 248-358 limits assumed, species assumed)": "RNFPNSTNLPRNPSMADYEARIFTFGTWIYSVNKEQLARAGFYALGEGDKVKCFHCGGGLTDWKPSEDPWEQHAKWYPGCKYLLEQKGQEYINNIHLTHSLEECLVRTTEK", "assay": "Disruption of the Smac peptide-(XIAP)BIR3 protein-protein interaction (Tables 2 and 3)", "format": "binding", "settings": "Series A compounds, Table 2; read-out: XIAP IC50", "description": "(§1) IC50 values for Series A compounds for XIAP. An assay capable of measuring disruption of the Smac peptide-(XIAP)BIR3 protein-protein interaction is established in the art as described in Example 2. In this assay IAP Inhibitor compounds compete with an immobilized Smac peptide for occupancy of the BIR3 binding pocket of XIAP. The rationale for this strategy results from the mutually exclusive nature of either Caspase 9 or Smac binding to the BIR3 pocket.\n(§2) Assays are performed and IC50 values are calculated as follows: […]\n(§3) IC50 values are calculated by logarithmic regression analysis of the percentage inhibition of each compound at 4 concentrations (usually 3- or 10-fold dilution series starting at 10 μM). In each experiment, the actual inhibition by reference compound is used for normalization of IC50 values to the basis of an average value of the reference inhibitor: Normalized IC50=measured IC50 average ref. IC50/measured ref. IC50\n(§4) Activity determinations of compounds herein using the testing method described herein and as are well known in the art, are used with the following test compounds of formula (I). […] “Activity” as used herein is defined as having IC50 values for IAP target inhibition of less than 10 μM. Specifically, in the table:\n(§5) IC50 values for Series B compounds are provided for XIAP. Assays are performed as described above using methods well known in the art.", "units": {"IC50": "µM"}}
{"smiles": "CN[C@@H](C)C(=O)N[C@H](C(=O)N1CCN(CC(C)C)C[C@H]1C(=O)NC1CCCc2ccccc21)C(C)C", "note": "(stereo partly drawn) [Compound 8, (S)-4-Isobutyl-1-[(S)-3-methyl-2-((S)-2-methylamino-propionylamino)-butyryl]-piperazine-2-carboxylic acid (1,2,3,4-tetrahydro-naphthalen-1-yl)-amide]", "IC50": "< 10"}
{"smiles": "CN[C@@H](C)C(=O)N[C@H](C(=O)N1CCN(Cc2ccc(C)cc2)C[C@H]1C(=O)NC1CCCc2ccccc21)C(C)C", "note": "(stereo partly drawn) [Compound 51, (S)-4-(4-Methyl-benzyl)-1-[(S)-3-methyl-2-((S)-2-methylamino-propionylamino)-butyryl]-piperazine-2-carboxylic acid (1,2,3,4-tetrahydro-naphthalen-1-yl)-amide]", "IC50": "< 10"}
{"smiles": "CN[C@@H](C)C(=O)N[C@H](C(=O)N1CCN(S(=O)(=O)c2sccc2-c2ccno2)C[C@H]1C(=O)NC1CCCc2ccccc21)C(C)C", "note": "(stereo partly drawn) [Compound 42, (S)-4-(3-Isoxazol-5-yl-thiophene-2-sulfonyl)-1-[(S)-3-methyl-2-((S)-2-methylamino-propionylamino)-butyryl]-piperazine-2-carboxylic acid (1,2,3,4-tetrahydro-naphthalen-1-yl)-amide]", "IC50": "< 10"}
{"smiles": "CN[C@@H](C)C(=O)N[C@H](C(=O)N1CCN(C(=O)NC(C)(C)C)C[C@H]1C(=O)NC1CCCc2ccccc21)C(C)C", "note": "(stereo partly drawn) [Compound 39, (S)-4-[(S)-3-Methyl-2-((S)-2-methylamino-propionylamino)-butyryl]-piperazine-1,3-dicarboxylic acid 1-tert-butylamide 3-[(1,2,3,4-tetrahydro-naphthalen-1-yl)-amide]]", "IC50": "< 10"}
{"smiles": "CN[C@@H](C)C(=O)N[C@H](C(=O)N1CCN(Cc2ccccc2)C[C@H]1C(=O)NC1CCCc2ccccc21)C(C)C", "note": "(stereo partly drawn) [Compound 54, (S)-4-Benzyl-1-[(S)-3-methyl-2-((S)-2-methylamino-propionylamino)-butyryl]-piperazine-2-carboxylic acid (1,2,3,4-tetrahydro-naphthalen-1-yl)-amide]", "IC50": "< 10"}
{"smiles": "CN[C@@H](C)C(=O)N[C@H](C(=O)N1CCN(CCOC)C[C@H]1C(=O)NC1CCCc2ccccc21)C(C)C", "note": "(stereo partly drawn) [Compound 38, (S)-4-(2-Methoxy-ethyl)-1-[(S)-3-methyl-2-((S)-2-methylamino-propionylamino)-butyryl]-piperazine-2-carboxylic acid (1,2,3,4-tetrahydro-naphthalen-1-yl)-amide]", "IC50": "< 10"}
{"smiles": "CN[C@@H](C)C(=O)N[C@H](C(=O)N1CCN(Cc2ccncc2)C[C@H]1C(=O)NC1CCCc2ccccc21)C(C)C", "note": "(stereo partly drawn) [Compound 9, (S)-1-[(S)-3-Methyl-2-((S)-2-methylamino-propionylamino)-butyryl]-4-pyridin-4-ylmethyl-piperazine-2-carboxylic acid (1,2,3,4-tetrahydro-naphthalen-1-yl)-amide]", "IC50": "< 10"}
{"smiles": "CCN1CCN(C(=O)[C@@H](NC(=O)[C@H](C)NC)C(C)C)[C@H](C(=O)NC2CCCc3ccccc32)C1", "note": "(stereo partly drawn) [Compound 32, (S)-4-Ethyl-1-[(S)-3-methyl-2-((S)-2-methylamino-propionylamino)-butyryl]-piperazine-2-carboxylic acid (1,2,3,4-tetrahydro-naphthalen-1-yl)-amide]", "IC50": "< 10"}
{"smiles": "CCCN1CCN(C(=O)[C@@H](NC(=O)[C@H](C)NC)C(C)C)[C@H](C(=O)NC2CCCc3ccccc32)C1", "note": "(stereo partly drawn) [Compound 25, (S)-1-[(S)-3-Methyl-2-((S)-2-methylamino-propionylamino)-butyryl]-4-propyl-piperazine-2-carboxylic acid (1,2,3,4-tetrahydro-naphthalen-1-yl)-amide]", "IC50": "< 10"}
{"smiles": "CN[C@@H](C)C(=O)N[C@H](C(=O)N1CCN(C(=O)NC(C)C)C[C@H]1C(=O)NC1CCCc2ccccc21)C(C)C", "note": "(stereo partly drawn) [Compound 48, (S)-4-[(S)-3-Methyl-2-((S)-2-methylamino-propionylamino)-butyryl]-piperazine-1,3-dicarboxylic acid 1-isopropylamide 3-[(1,2,3,4-tetrahydro-naphthalen-1-yl)-amide]]", "IC50": "< 10"}
{"smiles": "CN[C@@H](C)C(=O)N[C@H](C(=O)N1CCN(C(=O)CCOC)C[C@H]1C(=O)NC1CCCc2ccccc21)C(C)C", "note": "(stereo partly drawn) [Compound 18, (S)-4-(3-Methoxy-propionyl)-1-[(S)-3-methyl-2-((S)-2-methylamino-propionylamino)-butyryl]-piperazine-2-carboxylic acid (1,2,3,4-tetrahydro-naphthalen-1-yl)-amide]", "IC50": "< 10"}
{"smiles": "CN[C@@H](C)C(=O)N[C@H](C(=O)N1CCN(C(=O)N(C)c2ccccc2)C[C@H]1C(=O)NC1CCCc2ccccc21)C(C)C", "note": "(stereo partly drawn) [Compound 50, (S)-4-[(S)-3-Methyl-2-((S)-2-methylamino-propionylamino)-butyryl]-piperazine-1,3-dicarboxylic acid 1-(methyl-phenyl-amide) 3-[(1,2,3,4-tetrahydro-naphthalen-1-yl)-amide]]", "IC50": "< 10"}
{"smiles": "CN[C@@H](C)C(=O)N[C@H](C(=O)N1CCN(Cc2ccc(NC(C)=O)cc2)C[C@H]1C(=O)NC1CCCc2ccccc21)C(C)C", "note": "(stereo partly drawn) [Compound 16, (S)-4-(4-Acetylamino-benzyl)-1-[(S)-3-methyl-2-((S)-2-methylamino-propionylamino)-butyryl]-piperazine-2-carboxylic acid (1,2,3,4-tetrahydro-naphthalen-1-yl)-amide]", "IC50": "< 10"}
{"smiles": "CN[C@@H](C)C(=O)N[C@H](C(=O)N1CCN(S(=O)(=O)C2CCCCC2)C[C@H]1C(=O)NC1CCCc2ccccc21)C(C)C", "note": "(stereo partly drawn) [Compound 11, (S)-4-Cyclohexanesulfonyl-1-[(S)-3-methyl-2-((S)-2-methylamino-propionylamino)-butyryl]-piperazine-2-carboxylic acid (1,2,3,4-tetrahydro-naphthalen-1-yl)-amide]", "IC50": "< 10"}
{"smiles": "CN[C@@H](C)C(=O)N[C@H](C(=O)N1CCNC[C@H]1C(=O)NC1CCCc2ccccc21)C(C)C", "note": "(stereo partly drawn) [Compound 56, (S)-1-[(S)-3-Methyl-2-((S)-2-methylamino-propionylamino)-butyryl]-piperazine-2-carboxylic acid (1,2,3,4-tetrahydro-naphthalen-1-yl)-amide]", "IC50": "< 10"}
{"smiles": "CN[C@@H](C)C(=O)N[C@H](C(=O)N1CCN(Cc2cncs2)C[C@H]1C(=O)NC1CCCc2ccccc21)C(C)C", "note": "(stereo partly drawn) [Compound 22, (S)-1-[(S)-3-Methyl-2-((S)-2-methylamino-propionylamino)-butyryl]-4-thiazol-5-ylmethyl-piperazine-2-carboxylic acid (1,2,3,4-tetrahydro-naphthalen-1-yl)-amide]", "IC50": "< 10"}
{"molecular_target": "T1, XIAP", "assay": "Disruption of the Smac peptide-(XIAP)BIR3 protein-protein interaction (Tables 2 and 3)", "format": "binding", "settings": "Series B compounds, Table 3; read-out: XIXP IC50", "description": "as §1, §2, §3, §4, §5", "units": {"IC50": "µM"}}
{"smiles": "CN[C@@H](C)C(=O)N[C@H](C(=O)N1CCN(Cc2ccccc2)C[C@H]1C(=O)NCC1CCCC1)C(C)C", "note": "[Compound 81, (S)-4-Benzyl-1-[(S)-3-methyl-2-((S)-2-methylamino-propionylamino)-butyryl]-piperazine-2-carboxylic acid cyclopentylmethyl-amide]", "IC50": "< 10"}
{"smiles": "CN[C@@H](C)C(=O)N[C@H](C(=O)N1CCN(Cc2ccccc2)C[C@H]1C(=O)NCCc1ccccc1F)C(C)C", "note": "[Compound 67, (S)-4-Benzyl-1-[(S)-3-methyl-2-((S)-2-methylamino-propionylamino)-butyryl]-piperazine-2-carboxylic acid [2-(2-fluoro-phenyl)-ethyl]-amide]", "IC50": "< 10"}
{"smiles": "CN[C@@H](C)C(=O)N[C@H](C(=O)N1CCN(Cc2ccccc2)C[C@H]1C(=O)NCCc1ccncc1)C(C)C", "note": "[Compound 69, (S)-4-Benzyl-1-[(S)-3-methyl-2-((S)-2-methylamino-propionylamino)-butyryl]-piperazine-2-carboxylic acid (2-pyridin-4-yl-ethyl)-amide]", "IC50": "> 10"}
{"smiles": "CN[C@@H](C)C(=O)N[C@H](C(=O)N1CCN(Cc2ccccc2)C[C@H]1C(=O)NCc1ccccc1)C(C)C", "note": "[Compound 65, (S)-4-Benzyl-1-[(S)-3-methyl-2-((S)-2-methylamino-propionylamino)-butyryl]-piperazine-2-carboxylic acid benzylamide]", "IC50": "< 10"}
{"smiles": "CN[C@@H](C)C(=O)N[C@H](C(=O)N1CCN(Cc2ccccc2)C[C@H]1C(=O)NCCc1ccccc1)C(C)C", "note": "[Compound 61, (S)-4-Benzyl-1-[(S)-3-methyl-2-((S)-2-methylamino-propionylamino)-butyryl]-piperazine-2-carboxylic acid phenethyl-amide]", "IC50": "< 10"}
{"smiles": "CN[C@@H](C)C(=O)N[C@H](C(=O)N1CCN(Cc2ccccc2)C[C@H]1C(=O)N1CCc2ccccc2C1)C(C)C", "note": "[Compound 86, (S)-N-{(S)-1-[(S)-4-Benzyl-2-(3,4-dihydro-1H-isoquinoline-2-carbonyl)-piperazine-1-carbonyl]-2-methyl-propyl}-2-methylamino-propionamide]", "IC50": "< 10"}
{"smiles": "CN[C@@H](C)C(=O)N[C@H](C(=O)N1CCN(Cc2ccccc2)C[C@H]1C(=O)NC1CCc2ccccc21)C(C)C", "note": "(stereo partly drawn) [Compound 62, (S)-4-Benzyl-1-[(S)-3-methyl-2-((S)-2-methylamino-propionylamino)-butyryi]-piperazine-2-carboxylic acid indan-1-ylamide]", "IC50": "< 10"}
{"smiles": "CN[C@@H](C)C(=O)N[C@H](C(=O)N1CCN(Cc2ccccc2)C[C@H]1C(=O)NCCc1cccc(F)c1)C(C)C", "note": "[Compound 63, (S)-4-Benzyl-1-[(S)-3-methyl-2-((S)-2-methylamino-propionylamino)-butyryl]-piperazine-2-carboxylic acid [2-(3-fluoro-phenyl)-ethyl]-amide]", "IC50": "< 10"}
